Results reported in PMC5439695 (PLoS ONE, 2017).

Tests used:
HepG2 cells [1] = conditions: HepG2 glo
[2] = test system: HEK293 and HepG2 cell lines; conditions: any activity in any time point/assay
HEK293 cells [3] = conditions: HEK293 flor
HEK293 cells [4] = conditions: HEK293 glo
HepG2 cells [5] = assay: CellTox Green Cytotoxicity Assay (flor) in HepG2, HepG2[flor]; assay type: cell-based, human; conditions: HepG2 flor;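 for hepg2 flor emax 0: percent activity versus DMSO-only wells with baseline rescaled to 0%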;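 for hepg2 flor emax 40: percent activity versus DMSO-only wells with baseline rescaled to 0%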
Throughout, for hek293 flor emax 0: unit not given here.

For `Cc1cc(N)c2cc(NC(=O)Nc3ccc4nc(C)cc(N)c4c3)ccc2n1.Cl.Cl` [Aminoquinuride dihydrochloride], the hepg2_glo_auc (HepG2 cells [1]) was 0, the hepg2_glo_time (HepG2 cells [1]) was 48 and the hepg2_glo_bin (HepG2 cells [1]; kinetics bin) was “inactive”. It also gave a hepg2_glo_emax_0 (HepG2 cells [1]; time point 0) of 0, a hepg2_glo_pod_0 (HepG2 cells [1]; time point 0) of -4.417 and a hepg2_glo_wauc_0 (HepG2 cells [1]; time point 0) of 0. The hepg2_glo_emax_8 (HepG2 cells [1]; time point 8) was 0, the hepg2_glo_pod_8 (HepG2 cells [1]; time point 8) was -4.417 and the hepg2_glo_wauc_8 (HepG2 cells [1]; time point 8) was 0. It also gave a hepg2_glo_emax_16 (HepG2 cells [1]; time point 16) of 0, a hepg2_glo_pod_16 (HepG2 cells [1]; time point 16) of -4.417 and a hepg2_glo_wauc_16 (HepG2 cells [1]; time point 16) of 0. For the same compound, the hepg2_glo_emax_24 (HepG2 cells [1]; time point 24) was 0, the hepg2_glo_pod_24 (HepG2 cells [1]; time point 24) was -4.417 and the hepg2_glo_wauc_24 (HepG2 cells [1]; time point 24) was 0. The hepg2_glo_emax_32 (HepG2 cells [1]; time point 32) was 0, the hepg2_glo_pod_32 (HepG2 cells [1]; time point 32) was -4.417 and the hepg2_glo_wauc_32 (HepG2 cells [1]; time point 32) was 0. For the same compound, the hepg2_glo_emax_40 (HepG2 cells [1]; time point 40) was 0, the hepg2_glo_pod_40 (HepG2 cells [1]; time point 40) was -4.417 and the hepg2_glo_wauc_40 (HepG2 cells [1]; time point 40) was 0. For the same compound, the information [2] was 0, the hek293_flor_auc (HEK293 cells [3]) was 0 and the hek293_flor_time (HEK293 cells [3]) was 48. For the same compound, the hek293_flor_bin (HEK293 cells [3]; kinetics bin) was “inactive”, the hek293_flor_emax_0 (HEK293 cells [3]; time point 0) was 0 and the hek293_flor_pod_0 (HEK293 cells [3]; time point 0) was -4.417. For the same compound, the hek293_flor_wauc_0 (HEK293 cells [3]; time point 0) was 0, the hek293_flor_emax_8 (HEK293 cells [3]; time point 8) was 0 and the hek293_flor_pod_8 (HEK293 cells [3]; time point 8) was -4.417. For the same compound, the hek293_flor_wauc_8 (HEK293 cells [3]; time point 8) was 0, the hek293_flor_emax_16 (HEK293 cells [3]; time point 16) was 0 and the hek293_flor_pod_16 (HEK293 cells [3]; time point 16) was -4.417. It also gave a hek293_flor_wauc_16 (HEK293 cells [3]; time point 16) of 0, a hek293_flor_emax_24 (HEK293 cells [3]; time point 24) of 0 and a hek293_flor_pod_24 (HEK293 cells [3]; time point 24) of -4.417. It also gave a hek293_flor_wauc_24 (HEK293 cells [3]; time point 24) of 0, a hek293_flor_emax_32 (HEK293 cells [3]; time point 32) of 0 and a hek293_flor_pod_32 (HEK293 cells [3]; time point 32) of -4.417. The hek293_flor_wauc_32 (HEK293 cells [3]; time point 32) was 0, the hek293_flor_emax_40 (HEK293 cells [3]; time point 40) was 0 and the hek293_flor_pod_40 (HEK293 cells [3]; time point 40) was -4.417. The hek293_flor_wauc_40 (HEK293 cells [3]; time point 40) was 0, the hek293_glo_auc (HEK293 cells [4]) was 0 and the hek293_glo_time (HEK293 cells [4]) was 48. For the same compound, the hek293_glo_bin (HEK293 cells [4]; kinetics bin) was “inactive”, the hek293_glo_emax_0 (HEK293 cells [4]; time point 0) was 0 and the hek293_glo_pod_0 (HEK293 cells [4]; time point 0) was -4.417. For the same compound, the hek293_glo_wauc_0 (HEK293 cells [4]; time point 0) was 0, the hek293_glo_emax_8 (HEK293 cells [4]; time point 8) was 0 and the hek293_glo_pod_8 (HEK293 cells [4]; time point 8) was -4.417. For the same compound, the hek293_glo_wauc_8 (HEK293 cells [4]; time point 8) was 0, the hek293_glo_emax_16 (HEK293 cells [4]; time point 16) was 0 and the hek293_glo_pod_16 (HEK293 cells [4]; time point 16) was -4.417. It also gave a hek293_glo_wauc_16 (HEK293 cells [4]; time point 16) of 0, a hek293_glo_emax_24 (HEK293 cells [4]; time point 24) of 0 and a hek293_glo_pod_24 (HEK293 cells [4]; time point 24) of -4.417. The hek293_glo_wauc_24 (HEK293 cells [4]; time point 24) was 0, the hek293_glo_emax_32 (HEK293 cells [4]; time point 32) was 0 and the hek293_glo_pod_32 (HEK293 cells [4]; time point 32) was -4.417. For the same compound, the hek293_glo_wauc_32 (HEK293 cells [4]; time point 32) was 0, the hek293_glo_emax_40 (HEK293 cells [4]; time point 40) was 0 and the hek293_glo_pod_40 (HEK293 cells [4]; time point 40) was -4.417. It also gave a hek293_glo_wauc_40 (HEK293 cells [4]; time point 40) of 0, a hepg2_flor_auc (HepG2 cells [5]) of 0 and a hepg2_flor_time (HepG2 cells [5]) of 48. The hepg2_flor_bin (HepG2 cells [5]; kinetics bin) was “inactive”, the hepg2_flor_emax_0 (HepG2 cells [5]; time point 0) was 0 and the hepg2_flor_pod_0 (HepG2 cells [5]; time point 0) was -4.417. It also gave a hepg2_flor_wauc_0 (HepG2 cells [5]; time point 0) of 0, a hepg2_flor_emax_8 (HepG2 cells [5]; time point 8) of 0 and a hepg2_flor_pod_8 (HepG2 cells [5]; time point 8) of -4.417. The hepg2_flor_wauc_8 (HepG2 cells [5]; time point 8) was 0, the hepg2_flor_emax_16 (HepG2 cells [5]; time point 16) was 0 and the hepg2_flor_pod_16 (HepG2 cells [5]; time point 16) was -4.417. It also gave a hepg2_flor_wauc_16 (HepG2 cells [5]; time point 16) of 0, a hepg2_flor_emax_24 (HepG2 cells [5]; time point 24) of 0 and a hepg2_flor_pod_24 (HepG2 cells [5]; time point 24) of -4.417. The hepg2_flor_wauc_24 (HepG2 cells [5]; time point 24) was 0, the hepg2_flor_emax_32 (HepG2 cells [5]; time point 32) was 0 and the hepg2_flor_pod_32 (HepG2 cells [5]; time point 32) was -4.417. It also gave a hepg2_flor_wauc_32 (HepG2 cells [5]; time point 32) of 0, a hepg2_flor_emax_40 (HepG2 cells [5]; time point 40) of 0 and a hepg2_flor_pod_40 (HepG2 cells [5]; time point 40) of -4.417. It also gave a hepg2_flor_wauc_40 (HepG2 cells [5]; time point 40) of 0.
